Experimental data published in the NIST ThermoML archive (doi:10.1016/j.fluid.2004.09.013).

Conditions: for mass density: Fluid (supercritical or subcritical phases), Vibrating tube method; for vapor or sublimation pressure: Liquid

C=CCC [1-butene]
Conditions | mass density [kg/m3]
388.24 K, 35013 kPa | 554.66
388.24 K, 40001 kPa | 562.62
393.24 K, 3099 kPa | 433.35
393.24 K, 4988 kPa | 452.98
393.24 K, 10001 kPa | 483.54
393.24 K, 14990 kPa | 503.16
393.24 K, 20005 kPa | 518.2
393.24 K, 24996 kPa | 530.47
393.24 K, 30000 kPa | 540.98
393.24 K, 35004 kPa | 550.18
393.24 K, 39996 kPa | 558.42
398.24 K, 3328 kPa | 420.6
398.24 K, 4984 kPa | 441.24
398.24 K, 9995 kPa | 475.63
398.24 K, 14988 kPa | 496.67
398.24 K, 20004 kPa | 512.53
398.24 K, 24995 kPa | 525.32
398.24 K, 29999 kPa | 536.22
398.24 K, 34991 kPa | 545.71
398.24 K, 40002 kPa | 554.2
403.24 K, 3570 kPa | 406.72
403.24 K, 4981 kPa | 428.43
403.24 K, 9984 kPa | 467.46
403.24 K, 14984 kPa | 490.08
403.24 K, 19994 kPa | 506.77
403.24 K, 24991 kPa | 520.14
403.24 K, 29990 kPa | 531.44
403.24 K, 34986 kPa | 541.24
403.24 K, 40010 kPa | 549.99
408.24 K, 3826 kPa | 391.44
408.24 K, 4981 kPa | 414.13
408.24 K, 9995 kPa | 459.14
408.24 K, 14983 kPa | 483.4
408.24 K, 19998 kPa | 501
408.24 K, 24993 kPa | 514.95
408.24 K, 29994 kPa | 526.66
408.24 K, 34991 kPa | 536.79
408.24 K, 40009 kPa | 545.77
413.24 K, 4097 kPa | 374.62
413.24 K, 4986 kPa | 397.78
413.24 K, 9991 kPa | 450.43
413.24 K, 14983 kPa | 476.61
413.24 K, 20002 kPa | 495.19
413.24 K, 24998 kPa | 509.75
413.24 K, 30000 kPa | 521.88
413.24 K, 34989 kPa | 532.32
413.24 K, 40005 kPa | 541.58
418.24 K, 4381 kPa | 356.12
418.24 K, 4990 kPa | 378.2
418.24 K, 9997 kPa | 441.54
418.24 K, 14996 kPa | 469.76
418.24 K, 20000 kPa | 489.3
418.24 K, 24996 kPa | 504.48
418.24 K, 29999 kPa | 517.07
418.24 K, 34991 kPa | 527.85
418.24 K, 40005 kPa | 537.36
423.24 K, 5017 kPa | 354.2
423.24 K, 9991 kPa | 431.88
423.24 K, 14996 kPa | 462.7
423.24 K, 20000 kPa | 483.36
423.24 K, 24995 kPa | 499.21
423.24 K, 29997 kPa | 512.25
423.24 K, 34989 kPa | 523.35
423.24 K, 39991 kPa | 533.12
428.24 K, 5020 kPa | 318.6
428.24 K, 9997 kPa | 422.29
428.24 K, 14995 kPa | 455.57
428.24 K, 19996 kPa | 477.35
428.24 K, 24996 kPa | 493.9
428.24 K, 29993 kPa | 507.4
428.24 K, 34987 kPa | 518.87
428.24 K, 39990 kPa | 528.9
433.24 K, 5019 kPa | 257.92
433.24 K, 9998 kPa | 412.15
433.24 K, 14987 kPa | 448.26
433.24 K, 19989 kPa | 471.28
433.24 K, 24994 kPa | 488.57
433.24 K, 29992 kPa | 502.55
433.24 K, 34997 kPa | 514.38
433.24 K, 40003 kPa | 524.73
438.24 K, 5011 kPa | 195.21
438.24 K, 9986 kPa | 401.49
438.24 K, 14995 kPa | 440.85
438.24 K, 19991 kPa | 465.16
438.24 K, 24999 kPa | 483.18
438.24 K, 29997 kPa | 497.7
438.24 K, 35010 kPa | 509.95
438.24 K, 39994 kPa | 520.5
443.24 K, 5018 kPa | 165.31
443.24 K, 14986 kPa | 433.23
443.24 K, 20005 kPa | 458.99
443.24 K, 24988 kPa | 477.7
443.24 K, 30010 kPa | 492.78
443.24 K, 35012 kPa | 505.33
443.24 K, 39996 kPa | 516.19
443.25 K, 9990 kPa | 390.35
448.24 K, 5018 kPa | 148
448.24 K, 14981 kPa | 425.58
448.24 K, 19992 kPa | 452.7
448.24 K, 24997 kPa | 472.33
448.24 K, 29998 kPa | 487.86
448.24 K, 34998 kPa | 500.83
448.24 K, 39998 kPa | 512
448.25 K, 9991 kPa | 378.84
453.24 K, 5018 kPa | 136.35
453.24 K, 14996 kPa | 418.01
453.24 K, 19984 kPa | 446.42
453.24 K, 24987 kPa | 466.88
453.24 K, 29994 kPa | 482.99
453.24 K, 34990 kPa | 496.33
453.24 K, 40001 kPa | 507.8

Conditions | vapor or sublimation pressure [kPa]
395.35 K | 2678.7
403.65 K | 3085.8
409.68 K | 3413.2
415.36 K | 3739.2
